In patent US11111267B2 (priority 2020, dated 2021):
Entries after “also recorded” stand apart in the source; their conditions may differ. Read-outs that look alike come from different tables or passages of the source.

Experiments:
[1] = test system: Hedgehog signaling pathway; experiment: Gli luciferase reporter assay in Gli Reporter-NIH3T3 cells (mShh stimulated); format: cell-based; conditions: mShh 1 μg/ml, 27 hours, read-out: IC50 for inhibition of the Hedgehog signaling pathway
Experimental: Hedgehog signaling pathway Gli Reporter-NIH3T3 cells were cultured in DMEM medium with 10% Calf serum, 1% Penn-strep, 500 μg/ml of Geneticin.
To perform the Gli luciferase reporter assay, Gli Reporter—NIH3T3 cells were seeded at 25,000 cells per well into white clear-bottom 96-well microplate in 100 μl of growth medium. Cells were incubated at 37° C. and 5% CO2 for overnight. Next day remove the medium from wells and add 45 μl of diluted inhibitor in assay medium (Opti-MEM Reduced Serum Medium+0.5% calf serum+1% non-essential amino acids+1 mM Na-pyruvate+10 mM HEPES+1% Pen/Strep) per well. Incubate cells at 37° C. in a CO2 incubator for 2 hours. Then add 5 μl of diluted mShh in assay medium to wells (final [mShh]=1 μg/ml). Add […] of assay medium to cell-free control wells. Cells were treated for 27 hours. […] Luminescence was measured using a luminometer (BioTek Synergy™ 2 microplate reader)
Reporter assays in triplicate were performed at each concentration. The luminescence intensity data were analyzed using the computer software, Graphpad Prism. In the absence of the compound, the luminescence intensity (Lt) in each data set was defined as 100%. In the absence of cells, the luminescence intensity (Lb) in each data set was defined as 0%. […]

[2] = test system: A431 xenograft; format: in vivo, BALB/c nude mice
Experimental: (§1) NCI-H2122 cells were cultured in RMPI1640 medium, A431 tumor cells cultured in DMEM medium, all the medium were supplemented with 10% heat inactivated fetal bovine serum, all cells used EDTA containing trypsin, passaged twice a week, incubated at 37° C. in an atmosphere of 5% CO2 in air and cultured.
(§2) 110 BALB/c nude mice, female, 6-8 weeks old, 18-22 g in body weight, were purchased from Shanghai Laboratory Animal Center (SLAC, Shanghai, China). The mice were kept in individually ventilated cage (IVC) systems at constant temperature and humidity, with 20.5-24.5° C. for temperature, 40-75% for humidity. With 4 animals in each cage, the size ogf the cage is 325 mm×210 mm×180 mm. The bedding material is corn cob, which is changed twice per week. Animals had free access to irradiation sterilized dry granule food and water during the entire study period. The food and water were changed twice per week. The identification labels for each cage contain the following information: number of animals, sex, strain, and date received treatment, study number, group number, and the starting date of the treatment. Animals were marked by ear coding. The experiments started one week after receiving the animals.
(§3) Each mouse were inoculated subcutaneously at the right flank region with NCI-H2122 tumor cells (5×10^7/ml), NCI-H1703 tumor cells (1×10^8/ml) and A431 tumor cells (5×10^7/ml), respectively in a mixture of phosphate-buffered saline and matrigel for tumor development via a 1 ml syringe. The treatments were started when the mean tumor size reached about 200 (150-250) mm^3.
(§4) To avoid errors between groups, the animals were first grouped by the tumor volumes according to the tumor volume measurements, and then randomly re-assigned to different groups.
(§5) During the study, the care and use of animals were conducted in accordance with the regulations of the Association for Assessment and Accreditation of Laboratory Animal Care (AAALAC). After tumor cell inoculation, the animals were checked daily for morbidity and mortality. At the time of routine monitoring, the animals were checked for any effects of tumor growth and treatments on normal behavior such as mobility, visual estimation of food and water consumption, body weight gain/loss, eye/hair matting and any other abnormal effect.
(§6) After tumor volume reached 3000 mm^3 or average tumor volume reached 2000 mm^3, before experimental animals emaciated or coma, anesthesia and euthanasia will be performed. During the experiment, if the weight loss of experimental animal reaches 20%, administration will be discontinued and experimental animals will be observed until the weight returned to 10% range before restart of the administration. In this experiment, when the mean tumor volume reached 2000 mm^3 or at the end of 59 days after the administration, experimental animals will be anesthesiaed to collect tumor mass which will be weighed and photographed.
(§7) • 8.1 Tumor size was measured twice weekly in two dimensions using a caliper, and the volume was expressed in mm^3 using the formula: V=0.5 a×b^2 where a and b are the long and short diameters of the tumor, respectively. • 8.2 T/C, percent value, T and C were the mean volume of the treated and control groups, respectively, on a given day. • 8.3 T−C, calculated with T as the time (in days) required for the mean tumor size of the treatment group to reach a predetermined size, and C was the time (in days) for the mean tumor size of the control group to reach the same size. • 8.4 (1−((Td−T0)/(Cd−C0)))×100% value (in percent) was an indication of antitumor effectiveness, Td and Cd were the mean tumor volumes of the treated and vehicle control animals on a given day and T0 and C0 were the mean tumor volumes of the treated and vehicle control animals at the start of the experiment. • 8.5 Tumor mass weight was measured at the end of study. 9. Statistical Analysis
(§8) A one-way analysis of variance was performed followed by multiple comparison procedures. […]

[3] = test system: NCI-H2122 lung cancer xenograft; format: in vivo, BALB/c nude mice
Experimental: as §1, §2, §3, §4, §5, §6, §7, §8

[4] = test system: BXPC-3 human pancreatic carcinoma xenograft; experiment: BXPC-3 xenograft tumor model, subcutaneous; format: in vivo, BALB/c nude mice
Experimental: as §7
A one-way analysis of variance was performed followed by multiple comparison procedures. All data was analyzed using SPSS 18.0. *p<0.05 or **P<0.01 are generally considered statistically significant when compared with vehicle group.
BXPC-3 tumor cells cultured in RMPI1640 medium supplemented with 10% heat inactivated fetal bovine serum, all cells used EDTA containing trypsin, passaged twice a week, incubated at 37° C. in an atmosphere of 5% CO2 in air and cultured.
BALB/c nude mice, female, 6-8 weeks old, 18-22 g in body weight, were purchased from Shanghai Laboratory Animal Center (SLAC, Shanghai, China).
Each mouse was inoculated subcutaneously at the right flank region with BXPC-3 tumor cells (5×10^7) in 0.1 ml of phosphate-buffered saline with matrigel via a 1 ml syringe for tumor development. The treatments were started when the mean tumor size reaches approximately 200 (150-250) mm^3 at 9 days after inoculation.
Randomized grouping, observations, aseptic, data processing, measurement and statistical analysis are as described in Example 3.

[5] = Pharmacokinetic study of jervine in mice; format: in vivo; conditions: CD-1 mice, PO 10 mg/Kg
Experimental: Orally dosed: A total of 3 male experimental CD-1 mice, approximately 8 weeks of age at receipt was administered jervine via oral gavage at 10 mg/kg. Blood samples (300 μL) were collected via cardiac puncture predose and at 2 minute, 5 minute, 15 minute, 0.5 hour, 1 hour, 2 hour, 4 hour, 8 hour, 24 hours postdose. Plasma was made form the blood samples in order to measure the concentration of jervine.

[6] = MTD study of jervine; format: in vivo, BALB/c nude mice; conditions: 14 days
Experimental: 9 BALB/c nude mice were divided equally into 3 groups. The mice were orally dosed at 50 mg/kg, 80 mg/kg and 150 mg/kg by groups. […] It was initially determined that the MTD is higher than 80 mg/kg for BALB/c nude mice.

Work on `CC1=C2C(=O)[C@H]3[C@@H](CC=C4C[C@@H](O)CC[C@@]43C)[C@@H]2CC[C@]12O[C@@H]1C[C@H](C)CN[C@H]1[C@H]2C` [jervine] yielded an IC50 [1] of 0.05 µM, a T/C value ([2]; A431, 40 mg/kg p.o. QD × 21 days) of 0.52 and a T/C value ([2]; A431, 60 mg/kg p.o. QD × 21 days) of 0.80. For the same molecule, the T/C value ([2]; A431, 80 mg/kg p.o. QD × 21 days) was 0.82, the T/C value ([3]; NCI-H2122, 40 mg/kg p.o. QD × 21 days) was 0.79 and the T/C value ([3]; NCI-H2122, 60 mg/kg p.o. QD × 21 days) was 0.701. It also gave a T/C value ([3]; NCI-H2122, 80 mg/kg p.o. QD × 21 days) of 0.594, a T/C value ([4]; BXPC-3, 20 mg/kg iv QD × 21 days) of 25.8% and a T/C value ([4]; BXPC-3, 40 mg/kg iv QD × 21 days) of 59.1%. The T/C value ([4]; BXPC-3, 80 mg/kg iv QD × 21 days) was 54.2%, the “tumor growth inhibition (in words)” value ([4]; BXPC-3 xenograft) was “significantly inhibit the growth of these three tumors; also recorded: effectively inhibit the tumor growth” and the “side effects / weight loss of the mice” value ([4]; BXPC-3 xenograft, during administration) was “no obvious side effects such as weight lose was observed; also recorded: no significant of weight lose”. For the same molecule, the “F (bioavailability)” value [5] was 41.2%, the mortality ([6]; 50 mg/kg oral) was “no animal dead” and the “general condition of the mice” value ([6]; 80 mg/kg oral gavage) was “all mice were in good condition”. The weight loss ([6]; 80 mg/kg oral gavage) was “no significant weight loss”, the mortality ([6]; 80 mg/kg oral) was “no animal die” and the mortality ([6]; 80 mg/kg oral, listed as Jervine) was “no animal dead”. For the same molecule, the mortality ([6]; 150 mg/kg oral) was “Two mice in the 150 mg/kg treatment group were dead”.
